pIC50: −log10 of the molar value. Each block holds one compound with its values, some of them ahead of it.
Experiments:
[1] = Inhibition of SUMO E1 (unknown origin); set-up: species or system Homo sapiens
[2] = Inhibition of Plasmodium falciparum SENP1 using QTGG-AFC as substrate by fluorescence based analysis
[3] = Inhibition of His-tagged SUMO1/SUMO E1 /GST-tagged Aos1/Uba2/His-tagged Ubc9 (unknown origin)-mediated recombinant His/T7-tagged RanGAP1-C-terminal fragment SUMOylation assessed as change in chemical shift perturbation by 1H,15N HSQC NMR spectroscopy analysis; set-up: species or system Homo sapiens
[4] = Inhibition of UAE (unknown origin); set-up: species or system Homo sapiens
NEDD8 activating enzyme = target: T1, NEDD8 activating enzyme (Homo sapiens, UniProt Q8TBC4); test: Inhibition of NAE (unknown origin); assay type: protein-complex assay
T1 sequence (Q8TBC4 whole entry): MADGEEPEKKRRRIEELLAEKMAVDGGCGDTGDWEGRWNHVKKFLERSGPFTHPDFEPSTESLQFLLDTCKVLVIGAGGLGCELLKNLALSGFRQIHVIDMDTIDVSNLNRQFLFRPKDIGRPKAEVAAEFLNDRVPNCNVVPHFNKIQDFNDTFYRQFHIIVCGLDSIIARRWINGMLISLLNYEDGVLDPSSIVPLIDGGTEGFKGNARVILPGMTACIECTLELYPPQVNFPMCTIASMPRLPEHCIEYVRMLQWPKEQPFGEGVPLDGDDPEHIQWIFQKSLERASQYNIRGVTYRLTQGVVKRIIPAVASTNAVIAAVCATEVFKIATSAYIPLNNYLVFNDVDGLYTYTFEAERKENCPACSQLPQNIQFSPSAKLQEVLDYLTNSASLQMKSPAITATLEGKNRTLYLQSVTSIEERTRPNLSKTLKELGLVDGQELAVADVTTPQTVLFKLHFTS
T1 sequence (Q13564 whole entry): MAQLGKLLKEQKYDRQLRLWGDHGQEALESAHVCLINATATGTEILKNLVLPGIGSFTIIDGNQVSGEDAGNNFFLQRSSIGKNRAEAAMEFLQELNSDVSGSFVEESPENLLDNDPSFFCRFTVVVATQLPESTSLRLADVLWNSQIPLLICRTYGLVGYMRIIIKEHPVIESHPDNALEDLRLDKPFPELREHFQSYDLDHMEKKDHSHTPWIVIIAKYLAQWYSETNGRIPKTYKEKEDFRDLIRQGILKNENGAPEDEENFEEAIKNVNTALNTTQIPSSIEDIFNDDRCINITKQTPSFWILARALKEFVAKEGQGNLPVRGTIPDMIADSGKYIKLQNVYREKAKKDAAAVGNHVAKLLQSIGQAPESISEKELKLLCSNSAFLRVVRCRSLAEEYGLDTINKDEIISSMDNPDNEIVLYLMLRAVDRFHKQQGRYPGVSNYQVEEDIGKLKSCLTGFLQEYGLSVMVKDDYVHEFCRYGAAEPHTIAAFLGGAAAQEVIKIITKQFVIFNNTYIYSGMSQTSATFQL

[5] = Inhibition of His-tagged SUMO1/SUMO E1 /His-tagged Ubc9 (unknown origin)-mediated SUMOylation using FL-AR as substrate incubated for 90 mins in presence of ATP by Western blot analysis; set-up: species or system Homo sapiens
[6] = (§1) Inhibition of His-tagged SUMO1/GST-tagged Aos1/Uba2/His-tagged Ubc9 (unknown origin)-mediated recombinant His/T7-tagged RanGAP1-C-terminal fragment SUMOylation expressed in Escherichia coli BL21 (DE3) assessed as reduction in Ubc9-SUMO level in presence of ATP by SDS-PAGE based immunoblotting analysis; set-up: species or system Homo sapiens
[7] = Inhibition of His-tagged SUMO/SAE /Ubc9 (unknown origin)-mediated recombinant 6His-tagged RanGAP1 SUMOylation in presence of ATP by HTRF analysis; set-up: species or system Homo sapiens
[8] = Inhibition of His-tagged SUMO1/SUMO E1 /GST-tagged Aos1/Uba2/His-tagged Ubc9 (unknown origin)-mediated recombinant His/T7-tagged RanGAP1-C2-terminal fragment SUMOylation in presence of ATP by SDS-PAGE based immunoblotting analysis; set-up: species or system Homo sapiens
PC-3 = test: Antiproliferative activity against human PC-3 cells assessed as cell growth inhibition incubated for 48 hrs by MTT assay; assay type: functional, cell-based; settings: PC-3, 48 h
LNCaP = test: Antiproliferative activity against androgen-sensitive human LNCaP cells assessed as cell growth inhibition incubated for 48 hrs by MTT assay; assay type: functional, cell-based
[9] = as §1, with “SUMO1/SUMO E1 /GST-tagged” for “SUMO1/GST-tagged”, “level measured upto 2 hrs” for “level”, “fluorescence polarization” for “SDS-PAGE based immunoblotting”; set-up: species or system Homo sapiens
[10] = Inhibition of His-tagged SUMO1/SUMO E1 /His-tagged Ubc9 (unknown origin)-mediated […] SUMOylation using FL-AR as substrate incubated for 90 mins in presence of ATP by peptide microarray-based fluorescence assay; set-up: species or system Homo sapiens

pIC50 [1]: 5.09
SMILES: NS(=O)(=O)OC[C@@H]1C[C@@H](n2ccc3c(NC4CCc5ccccc54)ncnc32)C[C@@H]1O (stereo partly drawn)

pIC50 [6]: 5.52
SMILES: CCCCCC/C=C\CCCCCCCc1cccc(O)c1C(=O)O [GINGKOLIC ACID]

pIC50 [6]: 5.66
SMILES: CCCCCCCCCCCCCCCc1cccc(O)c1C(=O)O [ANACARDIC ACID]

pIC50 [6]: 4.93
SMILES: C[C@@H]1O[C@@H](O[C@@H]2C[C@H](c3ccc4c(c3O)C(=O)C3=C(C4=O)[C@@]4(O[C@H]5CC[C@H](O)[C@H](C)O5)C(=O)C[C@](C)(O)C[C@@]4(O)C=C3)O[C@H](C)[C@H]2O)CC[C@@H]1O[C@H]1C[C@@H](O)[C@H](O)[C@@H](C)O1

pIC50 [9]: 4.90
SMILES: COc1ccc(NC(=O)[C@H](CCCN)Nc2cc(C)nc(NCCc3cccs3)n2)cc1

pIC50 [10]: 4.13
SMILES: c1coc(-c2cc(CNc3ncnc4sc5cnccc5c34)no2)c1

Continued, compound first:

SMILES: O=C(O)c1cccc(C(=O)NCc2ccc(C(=O)NNC(=O)[C@H]3O[C@@H]3C(=O)C(Cc3cccc4ccccc34)Cc3cccc4ccccc34)cc2)c1
pIC50 [2]: 4.79

SMILES: Oc1ccccc1-c1ccccc1O
pIC50 [3]: 2.24

SMILES: NS(=O)(=O)OC[C@@H]1C[C@@H](Nc2ncncc2C(=O)c2ccn(Cc3cccc(Br)c3)n2)C[C@@H]1O
pIC50 [4]: < 4.00
pIC50 [1]: 8.52
pIC50 (NEDD8 activating enzyme): 4.49

SMILES: O=c1cc(-c2ccc(O)c(O)c2O)oc2ccccc12
pIC50 [5]: 5.22

SMILES: CCOC(=O)CCc1ccc(-c2ccccc2O)c(O)c1
pIC50 [3]: 2.52

SMILES: COC(=O)C1=C(C(=O)OC)[C@@]2([C@@H](Cc3ccc(C)cc3)Nc3ccccc3)C=C[C@@H]1O2
pIC50 [7]: 6.70

SMILES: CO/C(=C/C(=O)O)[C@H]1c2cc3ccc(-c4ccc5cc6c(c(O)c5c4O)C(=O)C[C@@](C)(O)[C@H]6/C(=C\C(=O)O)OC)c(O)c3c(O)c2C(=O)C[C@@]1(C)O
pIC50 [8]: 5.36

SMILES: O=C(O)CN(NC(=O)c1ccc(CNC(=O)c2cccc(C(=O)O)c2)cc1)C(=O)[C@H]1O[C@@H]1C(=O)C(Cc1cccc2ccccc12)Cc1cccc2ccccc12
pIC50 [2]: 4.75

SMILES: CC(C)[C@]12O[C@H]1[C@@H]1O[C@]13[C@]1(O[C@H]1C[C@H]1C4=C(CC[C@@]13C)C(=O)OC4)[C@@H]2O [TRIPTOLIDE]
pIC50 (PC-3): 7.69
pIC50 (LNCaP): 8.01

— ChEMBL document CHEMBL5113384, “Small-molecule inhibitors targeting small ubiquitin-like modifier pathway for the treatment of cancers and other diseases” (Eur J Med Chem, 2022)
